Laboratory results: EP1140830B1, “ARYLPIPERIDINE AND ARYL-1,2,5,6-TETRAHYDROPYRIDINE AMIDE DERIVATIVES HAVING 5HT1A RECEPTOR ACTIVITY” (Wyeth, priority 1998, dated 2000)
pEC50, pIC50, pKi: −log10 of the molar value. Like-named read-outs stand apart in the source and are kept apart here.

Assays:
human 5HT1A receptor [1] = target: T1, human 5HT1A receptor (Homo sapiens, UniProt P08908); test: 5-HT1A Receptor Binding Assay ([3H] 8-OH-DPAT displacement in transfected CHO cells)
T1 construct: expressed in transfected cells; host or cells: CHO cells
T1 sequence (P08908 1-422): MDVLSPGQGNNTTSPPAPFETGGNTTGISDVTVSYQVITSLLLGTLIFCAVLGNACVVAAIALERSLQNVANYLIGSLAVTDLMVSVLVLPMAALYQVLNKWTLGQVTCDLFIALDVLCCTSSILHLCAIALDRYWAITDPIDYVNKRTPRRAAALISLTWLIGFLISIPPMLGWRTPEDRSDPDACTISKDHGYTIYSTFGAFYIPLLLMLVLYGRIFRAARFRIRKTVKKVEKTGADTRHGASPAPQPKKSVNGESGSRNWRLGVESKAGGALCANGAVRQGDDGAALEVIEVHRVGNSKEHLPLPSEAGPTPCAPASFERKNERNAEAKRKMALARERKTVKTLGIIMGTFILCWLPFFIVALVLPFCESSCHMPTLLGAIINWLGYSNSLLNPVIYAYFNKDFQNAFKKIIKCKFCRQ
Experimental: 5-HT1A Receptor Binding Assay
Stably transfected CHO cells are grown in DMEM containing 10% heat inactivated FBS and non-essential amino acids. Cells are scraped off the plate, transferred to centrifuge tubes, and washed twice by centrifugation (2000 rpm for 10 min., 4"C) in buffer (50 mM Tris pH 7.5). The resulting pellets are aliquoted and placed at -80°C. On the day of assay, the cells are thawed on ice and resuspended in buffer. The binding assay is performed in a 96 well microtiter plate in a total volume of 250 µL. […] Following a 30 minute incubation at room temperature, the reaction is terminated by the addition of ice cold buffer and rapid filtration through a GF/B filter presoaked for 30 minutes in 0.5% PEI.

human 5HT1A receptor [2] = target: T1, human 5HT1A receptor; test: 5-HT1A Receptor Intrinsic Activity Assay (forskolin-stimulated cAMP in transfected CHO cells, RIA); format: cell-based; conditions: for Emax: Emax = 0 % means no agonist activity; for pIC50: antagonist mode: reversal of agonist-induced activity, antagonist preincubated 20 minutes before agonist and forskolin
Experimental: 5-HT1A Receptor Intrinsic Activity Assay
The intrinsic activity of compounds of the present invention was established by testing the claimed compounds ability to reverse the stimulation of cyclic adenosinemonophosphate (cAMP) in CHO cells stably transfected with the human 5-HT1A receptor.
Stably transfected CHO cells were grown in DMEM containing 10% heat inactivated FBS and non-essential amino acids. The cells arc plated at a density of ? x10^6 cells per well in a 24 well plate and incubated for 2 days in a CO2 incubator. On the second day, the media is replaced with 0.5 mL treatment buffer (DMEM + 25 mM HEPES, 5 mM theophylline, 10 µM pargyline) and incubated for 10 minutes at 37°C. Wells are treated with forskolin (1 µM final concentration) followed immediately by the test compound (0.1 and 1 µM for initial screen) and incubated for an additional 10 minutes at 37°C. The reaction is terminated by removal of the media and addition of 0.5 mL ice cold assay buffer (supplied in the RIA kit). Plates are stored at -20°C prior to assessment of cAMP formation by RIA. EC50 values are determined for the active test compounds. Compounds shown to have no agonist activities (Emax = 0 %) are further analyzed for their ability to reverse agonist-induced activity. In separate experiments, 6 concentrations of antagonist are preincubated for 20 minutes prior to the addition of agonist and forskolin. Cells are harvested as described above. The CAMP kit is supplied by Amersham and the RIA is performed as per kit instructions, and calculations of IC50 performed by GraphPad Prism.

[3] = displacement of [3H] 8-OH-DPAT (1.5 nM), CHO cells stably transfected with human 5HT1A receptor
[4] = agonist mode: reversal of forskolin (1 µM) stimulated cAMP, CHO cells

| SMILES | pKi (human 5HT1A receptor [1]; [3]) | Emax (human 5HT1A receptor [2]; [4]) | pIC50 (human 5HT1A receptor [2]) | pKi (human 5HT1A receptor [1]) | pEC50 (human 5HT1A receptor [2]; [4]) |
| --- | --- | --- | --- | --- | --- |
| COc1ccc(F)cc1C1CCN(C[C@@H](Cc2ccccc2)N(C)C(=O)C2(C)CCCCC2)CC1 [Example 1, 1-Methyl-cyclohexanecarboxylic acid {(1R)-1-benzyl-2-[4-(5-fluoro-2-methoxy-phenyl)-piperidine-1-yl]-ethyl}-methyl-amide] | 7.97 | 0% | 7.95 |  |  |
| COc1ccc(F)cc1C1=CCN(C[C@@H](Cc2ccccc2)N(C)C(=O)C2(C)CCCCC2)CC1 [Example 2, 1-Methyl-cyclohexanecarboxylic acid {(1R)-1-benzyl-2-[4-(5-fluoro-2-methoxy-phenyl)-1,2,5,6-tetrahydro-4H-pyridin-1-yl]-ethyl}-methyl-amide] |  | 0% |  | 8.31 |  |
| COc1ccccc1C1=CCN(C[C@@H](Cc2ccccc2)NC(=O)C2CCCCC2)CC1 [Example 3, (R)-Cyclohexanecarboxylic acid{1-benzyl-2-[4-(2-methoxy-phenyl)-3,6-dihydro-2H-pyridin-1-yl]-ethyl}-amide] |  | 84% |  |  |  |
| COc1ccccc1C1=CCN(C[C@@H](Cc2ccccc2)NC(=O)C2(C)CCCCC2)CC1 [Example 4, (R)-1-Methyl-cyclohexanecarboxylic acid{1-benzyl-2-[4-(2-methoxy-phenyl)-3,6-dihydro-2H-pyridin-1-yl]-ethyl}-amide] |  | 84% |  |  |  |
| COc1ccccc1C1CCN(C[C@@H](Cc2ccccc2)NC(=O)C2(C)CCCCC2)CC1 [Example 5, (R)-1-Methyl-cyclohexanecarboxylic acid {1-benzyl-2-[4-(2-methoxy-phenyl)-piperidin-1-yl]-ethyl}-amide] | 9.62 | 0% | 9.54 |  |  |
| COc1ccccc1C1CCN(C[C@@H](Cc2ccccc2)NC(=O)C2CCCCC2)CC1 [Example 6, (R)-Cyclohexanecarboxylic acid {1-benzyl-2-[4-(2-methoxy-phenyl)-piperidin-1-yl]-ethyl}-amide] | 9.64 | 92% |  |  | 7.77 |
